Experimental data: patent US20040163143A1, “Method for efficiently producing transgenic plant using auxin precursor” (NIPPON PAPER INDUSTRIES CO., LTD., priority 2002, published 2004)

What was measured:
[1] = tested on: E. globulus hypocotyl sections; assay: E. globulus gene introduction test, vector pIAH6 (ipt + iaaH + GUS), adventitious bud redifferentiation and GUS staining; format: cell-based, Eucalyptus globulus; conditions: for B Adventitious bud differentiated (number of sections): 3 months after infection; for B/A Redifferentiation ratio / C/A Gene introduction ratio / C/B Selection efficiency: section basis
Protocol: Using a plasmid pIAH6 as a vector having a GUS gene as a model of a desired gene and an ipt gene and an iaaH gene as selectable marker genes, a transformant was produced by carrying out gene introduction into Eucalyptus globulus (hereinafter referred to as “E. globulus”) by the method of the present invention. Seeds of E. globulus from Chile were sterilized by soaking in 70% ethanol for about 1 minute and then soaking with stirring in a 2% aqueous sodium hypochlorite solution for about 4 hours, washed thoroughly with sterile water, inoculated on an MS agar medium to which 0.5 mg/l zeatin had been added and stored in a refrigerator at 4° C. for 2 days to accelerate germination, and then the germination was carried out by culturing at 25° C. under light conditions of about 10 μmol/m^2/s in light intensity. One to two weeks after the inoculation of the seeds onto the germination medium, hypocotyls were collected by cutting out apical buds, cotyledons and roots of the germinated seedlings, and the hypocotyls were cut into sections of about 5 mm to be used as samples for gene introduction and subjected to the following test. A. tumefaciens EHA105 introduced with the plasmid pIAH6 in the above item I was cultured overnight in the YEB liquid medium and then diluted to OD630 =0.5 with EG basal medium, and the sections of hypocotyl prepared in the above were soaked in the cell suspension. Next, each of the sections after removing excess cell suspension was co-cultured with Agrobacterium on an agar medium (agar 8.5 g/l) prepared by adding 1.0 mg/l zeatin, 0.05 mg/l NAA and 40 mg/l acetosyringone to the EG basal medium, at 25° C. for 3 days in the dark to thereby infect each section with the pIAH6-introduced Agrobacterium. In this case, a modified MS medium having an ammonia nitrogen/nitrate nitrogen concentration ratio of 1:3 (5 mM NH4, 15 mM NO3) was supplemented with 20 g/l sucrose and used as the EG basal medium. The sections after infection culturing were put on an EG basal agar medium (agar 8.5 g/l) supplemented with 500 mg/l ticarcillin and 1 μM or 10 μM of an auxin precursor analogue NAM, and the culturing was continued at 25° C. under light conditions of 30 to 40 μmol/m^2/s in light intensity while sub-culturing at an interval of 2 weeks using the same medium. Among these sections, the quicker ones redifferentiated adventitious buds after about 2 months of the Agrobacterium infection. Three months after the Agrobacterium infection, in order to examine expression of the GUS gene used as a model of the desired gene, the redifferentiated adventitious buds were subjected to a GUS staining test in accordance with the method of Jefferson et al. (Plant Mol. Biol. Rep., 5: 387-405 (1987)), and the degree of formation of desired gene-introduced adventitious buds was judged by examining the number of stained adventitious buds (the number of adventitious buds expressing the desired gene). An E. globulus gene introduction test was carried out in the same manner as in Example 1, except that the hypocotyl sections after the Agrobacterium infection were cultured using the EG basal agar medium (agar 8.5 g/l) supplemented with 500 mg/l ticarcillin and 0 μM, 1 μM or 10 μM NAA as auxin.

[2] = tested on: stem sections of a high rooting clone of E. globulus; assay: gene introduction test on high rooting clone of E. globulus, vector pIAH6, GUS staining; format: cell-based, Eucalyptus globulus; conditions: NAM 1 μM
Protocol: Definite buds of a high rooting clone of E. globulus from Chile were aseptically grown using a medium prepared by adding 0.5 mg/l zeatin to the Y basal medium of Example 2, and the elongated stems were cut into sections of 5 mm to be used as samples for gene introduction and infected with the plasmid pIAH6-introduced Agrobacterium in the same manner as in Example 1. The sections after infection culturing were put on an EG basal agar medium (agar 8.5 g/l) supplemented with 500 mg/l ticarcillin and 1 μM of an auxin precursor analogue NAM, and the culturing was continued at 25° C. under light conditions of 30 to 40 μmol/m^2/s in light intensity while sub-culturing at an interval of 2 weeks using the same medium. Four months after the Agrobacterium infection, the redifferentiated adventitious buds were subjected to a GUS staining test in accordance with the above method of Jefferson et al., and the degree of formation of desired gene-introduced adventitious buds was judged.

[3] = NAM 1 μM in medium, 60 sections tested
[4] = NAM 10 μM in medium, 48 sections tested

NC(=O)Cc1cccc2ccccc12 [NAM, naphthaleneacetic acid amide]
C GUS + adventitious bud differentiated (number of sections) [1, 3]: 8 number of sections | B Adventitious bud differentiated (number of sections) [1, 3]: 21 number of sections | B/A Redifferentiation ratio ([1]; NAM 1 μM in medium): 35.0% | C/A Gene introduction ratio ([1]; NAM 1 μM in medium): 13.3% | C/B Selection efficiency ([1]; NAM 1 μM in medium): 38.1% | C GUS + adventitious bud differentiated (number of sections) [1, 4]: 1 number of sections | B Adventitious bud differentiated (number of sections) [1, 4]: 2 number of sections | B/A Redifferentiation ratio ([1]; NAM 10 μM in medium): 4.2% | C/A Gene introduction ratio ([1]; NAM 10 μM in medium): 2.1% | C/B Selection efficiency ([1]; NAM 10 μM in medium): 50.0% | sections whose buds had the desired gene introduced (GUS staining) ([2]; among 40 stem sections): 3 sections | sections from which adventitious buds were differentiated ([2]; among 40 stem sections, 4 months after infection): 5 sections | gene introduction ratio into adventitious buds ([2]; section basis): 7.5% | redifferentiation ratio of adventitious buds ([2]; section basis): 12.5% | selection efficiency ([2]; section basis): 60.0%
